Reference: ChEMBL document CHEMBL1138373, “New antifungal flavonoid glycoside from Vitex negundo” (2007)
Values after ≈ are worked out from the molar mass of the structure shown.

Tests used:
[1] = test system: Trichophyton benhamiae; test: Antifungal activity against Trichophyton mentagrophytes by broth micro-dilution technique; assay type: functional, Arthroderma benhamiae
[2] = test system: Aspergillus fumigatus; test: Antifungal activity against Aspergillus fumigatus by broth micro-dilution technique; assay type: functional
[3] = test system: Candida parapsilosis; test: Antifungal activity against Candida parapsilosis ATCC 22019 by broth micro-dilution technique; assay type: functional; details: Lodderomyces parapsilosis
[4] = test system: Enterococcus faecalis; test: Antibacterial activity against Streptococcus faecalis by broth micro-dilution technique; assay type: functional
[5] = test system: Klebsiella pneumoniae; test: Antibacterial activity against Klebsiella pneumoniae by broth micro-dilution technique; assay type: functional
[6] = test system: Escherichia coli; test: Antibacterial activity against Escherichia coli by broth micro-dilution technique; assay type: functional
[7] = test system: Pseudomonas aeruginosa; test: Antibacterial activity against Pseudomonas aeruginosa by broth micro-dilution technique; assay type: functional
[8] = test system: Staphylococcus aureus; test: Antibacterial activity against Staphylococcus aureus by broth micro-dilution technique; assay type: functional
[9] = test system: Candida albicans; test: Antifungal activity against Candida albicans by broth micro-dilution technique; assay type: functional
[10] = test system: Cryptococcus neoformans; test: Antifungal activity against Cryptococcus neoformans by broth micro-dilution technique; assay type: functional
[11] = test system: Sporothrix schenckii; test: Antifungal activity against Sporothrix schenckii by broth micro-dilution technique; assay type: functional

SMILES	MIC [1]	MIC [2]	MIC [3]	MIC [4]	MIC [5]	MIC [6]	MIC [7]	MIC [8]	MIC [9]	MIC [10]	MIC [11]
COc1ccc(-c2oc3cc(OC)c(OC)c(O)c3c(=O)c2OC)cc1OC [ARTEMETIN]	25 µg/mL (≈ 64.4 µM)	50 µg/mL (≈ 129 µM)	25 µg/mL (≈ 64.4 µM)	> 50 µg/mL	25 µg/mL (≈ 64.4 µM)	50 µg/mL (≈ 129 µM)	50 µg/mL (≈ 129 µM)	25 µg/mL (≈ 64.4 µM)	> 50 µg/mL	12.5 µg/mL (≈ 32.2 µM)	> 50 µg/mL
O=c1cc(-c2ccc(O)c(O)c2)oc2cc(O)cc(O)c12 [LUTEOLIN]	50 µg/mL (≈ 175 µM)	> 50 µg/mL	25 µg/mL (≈ 87.3 µM)	25 µg/mL (≈ 87.3 µM)	25 µg/mL (≈ 87.3 µM)	50 µg/mL (≈ 175 µM)	25 µg/mL (≈ 87.3 µM)	25 µg/mL (≈ 87.3 µM)	> 50 µg/mL	25 µg/mL (≈ 87.3 µM)	> 50 µg/mL
OC(Cn1cncn1)(Cn1cncn1)c1ccc(F)cc1F [FLUCONAZOLE]	2 µg/mL (≈ 6.53 µM)	2 µg/mL (≈ 6.53 µM)	1 µg/mL (≈ 3.27 µM)	–	–	–	–	–	0.5 µg/mL (≈ 1.63 µM)	1 µg/mL (≈ 3.27 µM)	2 µg/mL (≈ 6.53 µM)
CC1(C)S[C@@H]2[C@H](NC(=O)[C@H](N)c3ccccc3)C(=O)N2[C@H]1C(=O)O [AMPICILLIN]	–	–	–	0.02 µg/mL (≈ 0.0572 µM)	0.09 µg/mL (≈ 0.258 µM)	–	50 µg/mL (≈ 143 µM)	0.09 µg/mL (≈ 0.258 µM)	–	–	–
O=c1cc(-c2ccc(O)c(O)c2)oc2cc(O)c([C@@H]3O[C@H](CO)[C@@H](O)[C@H](O)[C@H]3O)c(O)c12 [ISOORIENTIN]	12.5 µg/mL (≈ 27.9 µM)	50 µg/mL (≈ 112 µM)	> 50 µg/mL	25 µg/mL (≈ 55.8 µM)	25 µg/mL (≈ 55.8 µM)	25 µg/mL (≈ 55.8 µM)	> 50 µg/mL	25 µg/mL (≈ 55.8 µM)	> 50 µg/mL	25 µg/mL (≈ 55.8 µM)	> 50 µg/mL
O=C(OCC1=C[C@@H](O)[C@@H]2C=CO[C@@H](O[C@H]3O[C@@H](CO)[C@H](O)[C@@H](O)[C@@H]3O)[C@H]12)c1ccc(O)cc1	12.5 µg/mL (≈ 26.8 µM)	> 50 µg/mL	> 50 µg/mL	> 50 µg/mL	50 µg/mL (≈ 107 µM)	> 50 µg/mL	> 50 µg/mL	> 50 µg/mL	> 50 µg/mL	12.5 µg/mL (≈ 26.8 µM)	> 50 µg/mL
C[C@]1(O)CC[C@@H]2C(C(=O)O)=CO[C@@H](O[C@H]3O[C@@H](CO)[C@H](O)[C@@H](O)[C@@H]3OC(=O)c3ccc(O)cc3)[C@@H]21	6.25 µg/mL (≈ 12.6 µM)	50 µg/mL (≈ 101 µM)	> 50 µg/mL	> 50 µg/mL	25 µg/mL (≈ 50.4 µM)	25 µg/mL (≈ 50.4 µM)	25 µg/mL (≈ 50.4 µM)	50 µg/mL (≈ 101 µM)	> 50 µg/mL	6.25 µg/mL (≈ 12.6 µM)	> 50 µg/mL
COC(=O)[C@H]1O[C@@H](Oc2cc(-c3cc(=O)c4c(O)cc(O)cc4o3)ccc2O)[C@H](O)[C@@H](O)[C@@H]1O	6.25 µg/mL (≈ 13.1 µM)	> 50 µg/mL	> 50 µg/mL	> 50 µg/mL	> 50 µg/mL	> 50 µg/mL	> 50 µg/mL	> 50 µg/mL	> 50 µg/mL	6.25 µg/mL (≈ 13.1 µM)	> 50 µg/mL
